Results: patent US20240366712A1, “G[…] USE IN A METHOD OF PREVENTING OR TREATING INFECTIONS WITH R[…]” (priority 2021, published 2024)

Tests used:
[1] = system: VeroE6 cells
[2] = system: Influenza A Virus H1N1v strain A/Regensburg/D6/09 (H1N1v); type: cell-based

Griffithsin [unencapsulated GRFT] was tested, and the “Toxic effect on VeroE6 cell viability compared to mock control” value [1] was “no specific toxic effect”, the “Dilution at which PFU reduction reached the detection limit” value [2] was “did not reach the detection limit at 1:2 dilution” and the “Total GRFT concentration at which PFU reduction reached the detection limit” value [2] was > 1.325 mg/mL. The “PFU reduction in virus infected cells” value ([2]; A549 cells, different dilutions/concentrations, n=3 per reading point) was “concentration dependent PFU reduction”.

With `CO[C@H]1C[C@@H]2CC[C@@H](C)[C@@](O)(O2)C(=O)C(=O)N2CCCC[C@H]2C(=O)O[C@H]([C@H](C)C[C@@H]2CC[C@@H](O)[C@H](OC)C2)CC(=O)[C@H](C)/C=C(\C)[C@@H](O)[C@@H](OC)C(=O)[C@H](C)C[C@H](C)/C=C/C=C/C=C/1C` [Rapamycin, reference compound] the “Effect on VeroE6 cell viability compared to mock control” value [1] was “slightly decreased the viability of cells”.
